Laboratory results from patent US20100068150A1, “Selective Caspase Inhibitors” (The Board of Trustees of the Leland Stanford Junior …, priority 2006, published 2010).

Tests used:
Type in all cases: biochemical
Caspase-8 = Caspase-8 (Homo sapiens, UniProt Q14790); assay: Kinetic compound screening, progress curve method, caspase-8; conditions: for Ki(app) Caspase-8: Table III, Ki(app) = Kass or Kobs/I, 10 nM active caspase-8; for Caspase-8 Ki (app): Table IV, NI = no inhibition at concentrations tested
Sequence of Caspase-8 (Q14790 217-479): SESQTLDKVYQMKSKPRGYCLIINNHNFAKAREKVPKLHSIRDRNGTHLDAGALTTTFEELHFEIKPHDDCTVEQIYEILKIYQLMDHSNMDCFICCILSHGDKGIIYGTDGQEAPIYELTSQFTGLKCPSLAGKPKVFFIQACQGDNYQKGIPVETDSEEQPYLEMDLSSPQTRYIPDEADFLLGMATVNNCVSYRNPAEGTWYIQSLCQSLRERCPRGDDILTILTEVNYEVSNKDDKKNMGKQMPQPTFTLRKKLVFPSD
Source text: (§1) Table III below presents Ki(app) values for select AB compounds. Ki(app) values (also called Kass or Kobs/I) represent the speed of inhibitor binding to a target enzyme. Units are [M^−1s^−1]. NI indicates no inhibition at concentrations tested. Parent compounds AB09, ABo8, and AB07 that include the optimal substrate specificity sequences for caspases-3, […] as determined by Thornberry and colleagues (Thornberry et al., 19970 are included between double lines.
(§2) The inhibitors AB07 (NP-LEHD-AOMK, caspase-9), AB08 (NP-LETD-AOMK, caspase-8), and AB09 (NP-DEVD-AOMK, caspase-3) were synthesized and kinetic inhibition constants (Kiapp) were obtained for all compounds for caspases 3, 7, 8 and 9 using the progress curve method for pseudo-first order reactions kinetics (Salvesen, 1989) (structures shown in Table I). […] Ki(app) values (also called Kass or Kobs/I) represent the speed of inhibitor binding to a target enzyme. Units are [M-1s-1]. NI indicates no inhibition at concentrations tested, ND indicates data not determined, SD indicates standard deviation.
(§3) Compound screening was completed using the progress curve method as described (Salvesen, 1989). All screening was carried out in caspase reaction buffer. The caspase-9 specific compounds AB38, 40, 41 and 42 were screened in caspase reaction buffer and in caspase buffer with 1M sodium citrate instead of sucrose as described (Pop, 2006) The concentrations of active caspases used is as follows: 5 nM active caspase-3, 5 nM active caspase-7, 10 nM active caspase-8, and 50 nM active caspase-9. To ensure full activation, caspases 3/7, 8 and 9 were preincubated at 37° C. for 5, 10, or 40 minutes respectively before kinetic measurements were made.

[1] = tested on: recombinant caspases-3, 7, 8 and 9; assay: Indirect competition with general probe KMB01 on individual recombinant caspases; conditions: 100 nM caspase, inhibitor 30 min, then 5 μM KMB01 30 min; range of concentrations
Method: (a.) Indirect competition of a panel of inhibitors with the general caspase probe KMB01. Individual caspases-3, 7, 8 and 9 (100 nM each) were incubated with the indicated inhibitors for 30 minutes followed by a 30 minute incubation with KMB01. Samples were analyzed by SDS-PAGE and residual active site labeling was visualized by biotin blotting using streptavidin-HRP. (b.) Direct labeling of caspase active sites using specific ABPs. Equal amounts of active caspaseses-3, 8, and 9 ([…]) were incubated together with increasing concentrations of each of the indicated biotinylated active site probes for 30 minutes. Active site labeling was visualized by SDS-PAGE analysis followed by biotin blotting using streptavidin HRP. (*) Indicates labeling of the full-length form of caspase-3 that is only observed using recombinant enzyme preparations.
We initially focused on recombinant caspase3, 7, 8, and 9. Each caspase was individually pre-incubated with our optimal series of selective inhibitors at a range of concentrations and residual activity was measured by addition of the general caspase probe KMB01. Overall, the competition data mirrored the kinetic data with caspase-3 and 8-specific compounds showing specific competition of the desired target.
This was shown by analysis of inhibitor and probe selectivity by indirect competition and direct labeling of recombinant caspases. Indirect competition of a panel of inhibitors with the general caspase probe KMB01 was carried out with individual caspases-3, 7, 8 and 9 (100 nM each), which were incubated with the specific inhibitors for 30 minutes followed by a 30-minute incubation with KMB01. Samples were analyzed by SDS-PAGE and residual active site labeling was visualized by biotin blotting using streptavidin-HRP. Also, the direct labeling of caspase active sites was carried out using specific ABPs. Equal amounts of active caspaseses-3, 8, and 9 ([…]) were incubated together with increasing concentrations of each of the indicated biotinylated active site probes for 30 minutes. Active site labeling was visualized by SDS-PAGE analysis followed by biotin blotting using streptavidin HRP.
For all competition and direct labeling experiments recombinant caspases were pre-incubated in caspase reaction buffer for 15 minutes at 37° C. For competition experiments, 100 nM of active site titrated caspase was incubated for 30 minutes at 37° C. with appropriate inhibitor and then residual active sites were labeled with 5 μM KMB01 for an additional 30 minutes. For direct labeling, 100 nM caspase-3, 8, and 9 were incubated together in the presence of appropriate ABPs at the indicated concentrations for 30 min at 37° C.

Caspase-3 = molecular target: T1, Caspase-3 (Homo sapiens, UniProt P42574); assay: Kinetic compound screening, progress curve method, caspase-3; conditions: for Ki(app) Caspase-3: Table III, Ki(app) = Kass or Kobs/I, 5 nM active caspase-3; for Caspase-3 Ki(app): Table IV
T1 sequence (P42574 29-175 limits assumed): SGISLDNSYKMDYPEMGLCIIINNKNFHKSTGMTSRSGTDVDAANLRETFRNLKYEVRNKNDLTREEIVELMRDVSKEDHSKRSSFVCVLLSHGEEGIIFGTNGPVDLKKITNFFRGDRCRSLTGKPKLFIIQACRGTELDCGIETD
T1 sequence (P42574 176-277 limits assumed): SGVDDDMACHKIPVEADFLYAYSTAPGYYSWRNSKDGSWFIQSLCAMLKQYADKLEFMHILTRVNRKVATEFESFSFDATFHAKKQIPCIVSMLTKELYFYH
Source text: as §1, §2, §3

Caspase-9 = molecular target: T2, Caspase-9 (Homo sapiens, UniProt P55211); assay: Kinetic compound screening, progress curve method, caspase-9; conditions: NI = no inhibition at concentrations tested; for Ki(app) Caspase-9: Table III, Ki(app) = Kass or Kobs/I, 50 nM active caspase-9; for Caspase-9 Ki (app): Table IV
T2 sequence (P55211 1-416): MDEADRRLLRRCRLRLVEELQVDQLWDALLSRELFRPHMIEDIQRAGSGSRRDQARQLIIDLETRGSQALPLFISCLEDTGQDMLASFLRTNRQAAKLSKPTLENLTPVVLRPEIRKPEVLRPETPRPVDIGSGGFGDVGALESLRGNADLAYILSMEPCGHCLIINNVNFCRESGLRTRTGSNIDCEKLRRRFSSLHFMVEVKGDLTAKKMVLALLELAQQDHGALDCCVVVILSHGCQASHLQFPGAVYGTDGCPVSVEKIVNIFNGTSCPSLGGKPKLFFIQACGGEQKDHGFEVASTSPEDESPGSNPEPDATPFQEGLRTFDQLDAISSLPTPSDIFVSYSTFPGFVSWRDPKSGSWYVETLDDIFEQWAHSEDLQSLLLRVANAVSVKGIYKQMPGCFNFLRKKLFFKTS
Source text: as §1, §2, §3

Caspase-7 = molecular target: T3, Caspase-7 (Homo sapiens, UniProt P55210); assay: Kinetic compound screening, progress curve method, caspase-7; conditions: for Ki(app) Caspase-7: Table III, Ki(app) = Kass or Kobs/I, 5 nM active caspase-7; for Caspase-7 Ki (app): Table IV
T3 sequence (P55210 1-303): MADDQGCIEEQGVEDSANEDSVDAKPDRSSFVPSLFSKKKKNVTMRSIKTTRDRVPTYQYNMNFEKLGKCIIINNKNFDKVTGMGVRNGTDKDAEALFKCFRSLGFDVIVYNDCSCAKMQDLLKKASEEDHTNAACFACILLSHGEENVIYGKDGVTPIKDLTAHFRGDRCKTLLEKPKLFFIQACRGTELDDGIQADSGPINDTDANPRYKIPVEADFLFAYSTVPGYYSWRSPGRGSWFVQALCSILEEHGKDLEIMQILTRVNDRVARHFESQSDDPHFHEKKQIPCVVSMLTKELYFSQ
Source text: as §1, §2, §3

Row | Structure (SMILES) | Ki(app) Caspase-8 (Caspase-8) | Caspase-8 Ki (app) (Caspase-8) | Ki(app) Caspase-3 (Caspase-3) | Caspase-3 Ki(app) (Caspase-3) | Ki(app) Caspase-9 (Caspase-9) | Caspase-9 Ki (app) (Caspase-9) | Ki(app) Caspase-7 (Caspase-7) | Caspase-7 Ki (app) (Caspase-7) | competition for KMB01 labeling of recombinant caspases [1]
1 | CCC(C)C(NC(=O)Cc1ccc(O)c([N+](=O)[O-])c1)C(=O)NC(Cc1ccccc1)C(=O)N1CCCC1C(=O)N[C@@H](CC(=O)O)C(=O)COC(=O)c1c(C)cccc1C (stereo partly drawn) [AB42, NP-I-F- P-D-AOMK] | 22,544 M^−1s^−1 | 22,544 M-1s-1 | 892,045 M^−1s^−1 | 892,045 M-1s-1 | 44,709 M^−1s^−1 | 44,709 M-1s-1 | 42,594 M^−1s^−1 | 42,594 M-1s-1 | minimal degree of selectivity for caspase-9 over caspase-8
2 | Cc1cccc(C)c1C(=O)OCC(=O)[C@H](CC(=O)O)NC(=O)[C@H](C)NC(=O)[C@H](CC(C)C)NC(=O)C1CCCN1C(=O)Cc1ccc([N+](=O)[O-])c(O)c1 (stereo partly drawn) [AB38, Np-P-L- A-D-AOMK] | 19,676 M^−1s^−1 | 19,676 M-1s-1 | 46,108 M^−1s^−1 | 46,108 M-1s-1 | 18,004 M^−1s^−1 | 18,004 M-1s-1 | 27,814 M^−1s^−1 | 27,814 M-1s-1 | minimal degree of selectivity for caspase-9 over caspase-8
3 | CCC(C)C(NC(=O)Cc1ccc(O)c([N+](=O)[O-])c1)C(=O)N[C@@H](CC(C)C)C(=O)N[C@@H](C)C(=O)N[C@@H](CC(=O)O)C(=O)COC(=O)c1c(C)cccc1C (stereo partly drawn) [AB40, Np-I-L- A-D-AOMK] | 35,174 M^−1s^−1 | 35,174 M-1s-1 | 261,470 M^−1s^−1 | 261,470 M-1s-1 | 48,867 M^−1s^−1 | 48,867 M-1s-1 | 11,256 M^−1s^−1 | 11,256 M-1s-1 | no specific inhibition

Continued, in another order:

Row | Ki(app) Caspase-8 (Caspase-8) | Caspase-8 Ki (app) (Caspase-8) | Ki(app) Caspase-3 (Caspase-3) | Caspase-3 Ki(app) (Caspase-3) | Ki(app) Caspase-9 (Caspase-9) | Caspase-9 Ki (app) (Caspase-9) | Ki(app) Caspase-7 (Caspase-7) | Caspase-7 Ki (app) (Caspase-7) | Structure (SMILES) | competition for KMB01 labeling of recombinant caspases [1]
4 | 817,077 M^−1s^−1 | 817,077 M-1s-1 | 1,020,213 M^−1s^−1 | 1,020,213 M-1s-1 | 300,767 M^−1s^−1 | 300,767 M-1s-1 | 272,619 M^−1s^−1 | 272,619 M-1s-1 | CC[C@H](NC(=O)[C@@H](CCC(=O)O)NC(=O)c1ccccc1N)C(=O)N[C@@H](CC(=O)O)C(=O)COC(=O)c1c(C)cccc1C [AB28, NH2-6-E-8-D-DMBA] | blocked labeling of all four caspases targets
5 | 49,815 M^−1s^−1 | 49,815 M-1s-1 | 1,582,350 M^−1s^−1 | 1,582,350 M-1s-1 | 35,779 M^−1s^−1 | 35,779 M-1s-1 | 69,317 M^−1s^−1 | 69,317 M-1s-1 | CCC(C)C(NC(=O)Cc1ccc(O)c([N+](=O)[O-])c1)C(=O)N[C@@H](CC(C)C)C(=O)N1CSCC1C(=O)N[C@@H](CC(=O)O)C(=O)COC(=O)c1c(C)cccc1C (stereo partly drawn) [AB41, Np-I-L-38-D-AOMK] | no specific inhibition
